# Several values for one entry are separate records, joined by “and”; a condition that tells them apart may be missing. Identical values can stand only once. Entries after “also recorded” stand apart in the source; their conditions may differ.
# Experiments:
# Type in all cases: in vivo
# [1] = tested on: C3H/HeN mice; test: Hair growth after topical application to clipped dorsal skin, macroscopic score (Example 1); parameters: key to Hair Growth Score: −: no hair growth observed; ±: hair growth≦10% of the clipped area; +: hair growth 10-40% of the clipped area; ++: hair growth 40-80% of the clipped area; +++: hair growth ≧80% of the clipped area; settings: for Hair Growth Score / animals on which hair growth was observed: topical once daily; for Hair Growth Score: individual animals; for animals on which hair growth was observed: 0.1%, 30 days treatment period, 3 animals per group
# Protocol: (§1) Eight-weeks-old male C3H/HeN mice were used. The hair on the back was clipped by electric clipper so that the hair in the clipped area was removed as much as possible. Three days after the clipping, mice without visible scratches were selected and used in this study. Each group consisted of 3 animals. After group assignment, the groups were housed separately in aluminum cages (3 animals/cage, 180 mm W×300 mm D×130 mm H; Nippon Cage, Ltd., Japan).
# (§2) Each test compound was dissolved in 70% (w/w) aqueous ethanol. Each dose formulation of test compound was evenly applied topically once daily (100 μL per mouse) to the clipped dorsal skin area (approximately 2×4 cm), except for Saturday and Sunday, for 30 days. The control group received an equal amount of the vehicle in the same manner.
# Macroscopic observations of the hair growth were performed 14, 16, 18, 21, 23, 25, 28 and 30 days after the start of the treatment. Hair growth was scored according to the scale below:
# − no hair growth observed
# ± hair growth≦10% of the clipped area
# + hair growth 10-40% of the clipped area
# ++ hair growth 40-80% of the clipped area
# +++ hair growth ≧80% of the clipped area
# [2] = tested on: C3H/HeN mice; test: Thickness of grown-up hair (Example 3); settings: 0.1% treated area, hairs collected 31 days after start of treatment of Example 1, n=3
# Protocol: 31 days after the start of the treatment conducted in Example 1, grown-up hairs in the treated area and hairs in the untreated area (i.e. non clipped area) were collected, respectively. Enlarged photomicrographs of the collected hairs were taken. Thickness of the randomly selected each ten hairs were measured and calculated the average.
# [3] = tested on: C3H/HeN mice; test: Hair growth after topical application to clipped dorsal skin, macroscopic score (Example 2); parameters: key to Hair Growth Score: −: no hair growth observed; ±: hair growth≦10% of the clipped area; +: hair growth 10-40% of the clipped area; ++: hair growth 40-80% of the clipped area; +++: hair growth ≧80% of the clipped area; settings: topical once daily; for Hair Growth Score: 0.1% in 75% aqueous ethanol, individual animals
# Protocol: as §1
# as §2, with “Test compound” for “Each test compound”, “in 75%” for “in 70% (w/w)”, “ethanol. The” for “ethanol. Each dose”, “compound (compound E)” for “compound”, “for 23” for “for 30”
# Macroscopic observations of the hair growth were performed 14, 16, 18, 21 and 23 days after the start of the treatment. Hair growth was scored according to the scale shown as above. In the 0.1% compound E-treated group, hair growth was observed on 3 out of 3 animals.
# [4] = 0.1% in 70% (w/w) aqueous ethanol, day 14 of treatment
# [5] = 0.1% in 70% (w/w) aqueous ethanol, day 16 of treatment
# [6] = 0.1% in 70% (w/w) aqueous ethanol, day 18 of treatment
# [7] = 0.1% in 70% (w/w) aqueous ethanol, day 21 of treatment
# [8] = 0.1% in 70% (w/w) aqueous ethanol, day 23 of treatment
# [9] = 0.1% in 70% (w/w) aqueous ethanol, day 25 of treatment
# [10] = 0.1% in 70% (w/w) aqueous ethanol, day 28 of treatment
# [11] = 0.1% in 70% (w/w) aqueous ethanol, day 30 of treatment
SMILES,"Hair Growth Score [1, 4]","Hair Growth Score [1, 5]","Hair Growth Score [1, 6]","Hair Growth Score [1, 7]","Hair Growth Score [1, 8]","Hair Growth Score [1, 9]","Hair Growth Score [1, 10]","Hair Growth Score [1, 11]","Hair thickness, μm mean ± SE [2] [μm]",animals on which hair growth was observed [1],other results
"CCCCCCCC1(CCC2C(O)CC(O)C2C/C=C\CCCC(=O)OC(C)C)OCCO1 (stereo not drawn) [Compound A, 13,14-dihydro-15,15-ethylenedioxy-20-ethyl-PGF2α isopropyl ester]",−,± (hair growth≦10% of the clipped area) (2×) and −,± (hair growth≦10% of the clipped area),+ (hair growth 10-40% of the clipped area),++ (hair growth 40-80% of the clipped area),++ (hair growth 40-80% of the clipped area),+++ (hair growth ≧80% of the clipped area),+++ (hair growth ≧80% of the clipped area),34.1 ± 1.6,,"hair growth, dose dependence ([1]; 0.01% and 0.1% treated groups): dose-dependent hair growth; Hair Growth Score ([1]; 0.01% in 70% (w/w) aqueous ethanol, day 14 of treatment): −; Hair Growth Score ([1]; 0.01% in 70% (w/w) aqueous ethanol, day 16 of treatment): −; Hair Growth Score ([1]; 0.01% in 70% (w/w) aqueous ethanol, day 18 of treatment): − (2×) and ± (hair growth≦10% of the clipped area); Hair Growth Score ([1]; 0.01% in 70% (w/w) aqueous ethanol, day 21 of treatment): − (2×) and ± (hair growth≦10% of the clipped area); Hair Growth Score ([1]; 0.01% in 70% (w/w) aqueous ethanol, day 23 of treatment): − (2×) and ± (hair growth≦10% of the clipped area); Hair Growth Score ([1]; 0.01% in 70% (w/w) aqueous ethanol, day 25 of treatment): − and + (hair growth 10-40% of the clipped area) (2×); Hair Growth Score ([1]; 0.01% in 70% (w/w) aqueous ethanol, day 28 of treatment): + (hair growth 10-40% of the clipped area); also recorded: ++ (hair growth 40-80% of the clipped area); Hair Growth Score ([1]; 0.01% in 70% (w/w) aqueous ethanol, day 30 of treatment): + (hair growth 10-40% of the clipped area); also recorded: ++ (hair growth 40-80% of the clipped area)"
"CC(C)OC(=O)CCC/C=C\CC1C(O)CC(O)C1CCC1(CCc2ccccc2)OCCO1 (stereo not drawn) [Compound B, 13,14-dihydro-15,15-ethylenedioxy-17-phenyl-18,19,20-trinor-PGF2α isopropyl ester]",−,−,± (hair growth≦10% of the clipped area) and − (2×),± (hair growth≦10% of the clipped area),+ (hair growth 10-40% of the clipped area),++ (hair growth 40-80% of the clipped area); also recorded: + (hair growth 10-40% of the clipped area),++ (hair growth 40-80% of the clipped area),++ (hair growth 40-80% of the clipped area),33.3 ± 0.7,,"Hair Growth Score ([1]; 0.1% in 70% (w/w) aqueous ethanol, day 30 of treatment, listed as compound B): ++ (hair growth 40-80% of the clipped area)"
"CCCCCCCC1(CCC2C(O)CC(O)C2C/C=C\CCCC(=O)OC(C)C)OCCCO1 (stereo not drawn) [Compound C, 13,14-dihydro-15,15-trimethylenedioxy-20-ethyl-PGF2α isopropyl ester]",−,−,− (2×) and ± (hair growth≦10% of the clipped area),− (2×) and ± (hair growth≦10% of the clipped area),− (2×) and ± (hair growth≦10% of the clipped area),− (2×) and + (hair growth 10-40% of the clipped area),− (2×) and + (hair growth 10-40% of the clipped area),− (2×) and + (hair growth 10-40% of the clipped area),,1 out of 3,
"CCCCCCCC(CCC1C(O)CC(O)C1C/C=C\CCCC(=O)OC(C)C)(OC)OC (stereo not drawn) [Compound D, 13,14-dihydro-15,15-dimethoxy-20-ethyl-PGF2α isopropyl ester]",−,− (2×) and ± (hair growth≦10% of the clipped area),− (2×) and ± (hair growth≦10% of the clipped area),− (2×) and + (hair growth 10-40% of the clipped area),− (2×) and + (hair growth 10-40% of the clipped area),− (2×) and + (hair growth 10-40% of the clipped area),− and ++ (hair growth 40-80% of the clipped area) and ± (hair growth≦10% of the clipped area),− and ++ (hair growth 40-80% of the clipped area) and ± (hair growth≦10% of the clipped area),,2 out of 3,
"CCCCCCCC1(CCC2C(O)CC(O)C2C/C=C\CCCC(=O)OCC)OCCO1 (stereo not drawn) [Compound E, 13,14-dihydro-15,15-ethylenedioxy-20-ethyl-PGF2α ethyl ester]",,,,,,,,,,,"Hair Growth Score ([3]; day 14 of treatment): −; Hair Growth Score ([3]; day 16 of treatment): −; Hair Growth Score ([3]; day 18 of treatment): ± (hair growth≦10% of the clipped area) (2×) and −; Hair Growth Score ([3]; day 21 of treatment): ++ (hair growth 40-80% of the clipped area); also recorded: + (hair growth 10-40% of the clipped area); Hair Growth Score ([3]; day 23 of treatment): + (hair growth 10-40% of the clipped area); also recorded: ++ (hair growth 40-80% of the clipped area); animals on which hair growth was observed ([3]; 0.1%, 23 days treatment period, 3 animals per group): 3 out of 3"
